Data taken from patent US9758494B2, “N-(oxazol-2-yl)-aryl-carboxylic acid amides and use thereof as herbicides” (BAYER CROPSCIENCE AG, priority 2012, dated 2017).

How the values were obtained:
Assay type in all cases: in vivo
[1] = system: Oryza sativa (Rice); experiment: Pre-emergence, damage of crop plants
Excerpt: (§1) Seeds of monocotyledonous and dicotyledonous weed plants and crop plants are laid out in wood-fiber pots in sandy loam and covered with soil. The compounds according to the invention, formulated in the form of wettable powders (WP) or as emulsion concentrates (EC), are then applied to the surface of the soil cover in the form of an aqueous suspension or emulsion at a water application rate equating to 600 to 800 l/ha, with addition of 0.2% wetting agent. After the treatment, the pots are placed in a greenhouse and kept under good growth conditions for the test plants. The damage to the test plants is assessed visually after a test period of 3 weeks by comparison with untreated controls (herbicidal activity in percent (%): 100% activity=the plants have died, 0% activity=like control plants). Here, for example, compounds No. 1-163, 1-171, 1-172, 1-283, 1-284, 1-294, 1-295, 1-334, 10-001 and 11-343, at an application rate of 320 g/ha, have an activity of at least 80% against Veronica persica.
(§2) In the tables below, the properties of the compounds according to the invention are compared to those of the structurally most similar compounds known from WO 2012/028579 A1. These tests were carried out by the pre- and post-emergence method under the conditions mentioned under item 1 and item 2. Here, the herbicidal activity against various harmful plants and the damage of some important crop plants were compared at different dosages.

[2] = system: Stellaria media; experiment: Post-emergence herbicidal action; settings: Dosage 5/ha (Table T)
Experimental: (§3) Seeds of monocotyledonous and dicotyledonous weed plants and crop plants are laid out in wood fiber pots in sandy loam, covered with soil and cultivated in a greenhouse under good growth conditions. 2 to 3 weeks after sowing, the test plants are treated at the one-leaf stage. The compounds according to the invention, formulated in the form of wettable powders (WP) or as emulsion concentrates (EC), are then sprayed onto the green parts of the plants in the form of an aqueous suspension or emulsion at a water application rate equating to 600 to 800 l/ha, with addition of 0.2% wetting agent. After the test plants have been left to stand in the greenhouse under optimal growth conditions for about 3 weeks, the action of the preparations is assessed visually in comparison to untreated controls (herbicidal action in percent (%): 100% activity=the plants have died, 0% activity=like control plants). Here, for example, compounds No. 1-163, 1-171, 1-172, 1-173, 1-254, 1-283, 1-284, 1-293, 1-294 and 1-334, at an application rate of 80 g/ha, have an activity of at least 80% against Abutilon theophrasti and Amaranthus retroflexus.
as §2

[3] = system: Veronica persica; experiment: Post-emergence herbicidal action; settings: Dosage 5/ha (Table T)
Experimental: as §3, §2

[4] = system: Oryza sativa (Rice); experiment: Post-emergence, damage of crop plants; settings: Dosage 80 g/ha (Table U)
Experimental: as §3, §2

[5] = system: Zea mays (Corn); experiment: Post-emergence, damage of crop plants; settings: Dosage 80 g/ha (Table U)
Experimental: as §3, §2

[6] = system: Matricaria inodora; experiment: Pre-emergence herbicidal action; settings: Dosage 80/ha (Table H)
Excerpt: as §1, §2

[7] = system: Echinochloa crus galli; experiment: Pre-emergence herbicidal action; settings: Dosage 80/ha (Table H)
Excerpt: as §1, §2

O=C(Nc1ncco1)c1ccc(C(F)(F)F)nc1Cl [10-1]
Damage of ORYZA ([1]; 20 g/ha (Table I)): 0%
Damage of ORYZA ([1]; 80 g/ha (Table I)): 0%
herbicidal activity against harmful plants STEME [2]: 40%
herbicidal activity against harmful plants VERPE [3]: 90%
damage of crop plants ORYZA [4]: 0%
damage of crop plants ZEAMX [5]: 0%
herbicidal activity against harmful plants MATIN [6]: 90%
herbicidal activity against harmful plants ECGCG [7]: 70%
